US9951040B2, “1,3,5 -triazine based PI3K inhibitors as anticancer agents and a process for the preparation thereof” (Council of Scientific and Industrial Research, priority 2014, dated 2018)
Like-named read-outs stand apart in the source and are kept apart here.

Molecular target: PI3K alpha (Homo sapiens, UniProt P42336)
Experiment: PI3K-α assay (ADP-Glo enzyme inhibition)
Type: biochemical
Conditions: at 500 nm
Description: Compounds were evaluated for their ability to inhibit class I PI3-kinase enzyme alpha as given below. PI3K-α Assay: PI3K alpha (diluted in 12.5 mM Glycine-NaOH (pH 8.5), 50 mM KCl, 2.5 mM MgCl2, 1 mM DTT, 0.05% CHAPS) is assayed in total volume of 20 ul containing 12.5 mM glycine-NaOH (pH 8.5), 50 mM KCl, 2.5 mM MgCl2, 1 mM DTT, 0.05% CHAPS, 0.01 mM ATP and 0.05 mM diC8 PIP2. The enzyme is assayed for 80 min after which 20 ul of ADP-Glo reagent is added. After a further incubation of 40 min, 40 ul of Kinase Detection Buffer is added. The assays are incubated for 40 min and then read on PerkinElmer Envision for 1 sec/well.

[1] = read-out: In vitro PI3K α % of inhibition
[2] = read-out: inhibition against PI3K alpha

Sequence of PI3K alpha (P42336 whole entry, species assumed): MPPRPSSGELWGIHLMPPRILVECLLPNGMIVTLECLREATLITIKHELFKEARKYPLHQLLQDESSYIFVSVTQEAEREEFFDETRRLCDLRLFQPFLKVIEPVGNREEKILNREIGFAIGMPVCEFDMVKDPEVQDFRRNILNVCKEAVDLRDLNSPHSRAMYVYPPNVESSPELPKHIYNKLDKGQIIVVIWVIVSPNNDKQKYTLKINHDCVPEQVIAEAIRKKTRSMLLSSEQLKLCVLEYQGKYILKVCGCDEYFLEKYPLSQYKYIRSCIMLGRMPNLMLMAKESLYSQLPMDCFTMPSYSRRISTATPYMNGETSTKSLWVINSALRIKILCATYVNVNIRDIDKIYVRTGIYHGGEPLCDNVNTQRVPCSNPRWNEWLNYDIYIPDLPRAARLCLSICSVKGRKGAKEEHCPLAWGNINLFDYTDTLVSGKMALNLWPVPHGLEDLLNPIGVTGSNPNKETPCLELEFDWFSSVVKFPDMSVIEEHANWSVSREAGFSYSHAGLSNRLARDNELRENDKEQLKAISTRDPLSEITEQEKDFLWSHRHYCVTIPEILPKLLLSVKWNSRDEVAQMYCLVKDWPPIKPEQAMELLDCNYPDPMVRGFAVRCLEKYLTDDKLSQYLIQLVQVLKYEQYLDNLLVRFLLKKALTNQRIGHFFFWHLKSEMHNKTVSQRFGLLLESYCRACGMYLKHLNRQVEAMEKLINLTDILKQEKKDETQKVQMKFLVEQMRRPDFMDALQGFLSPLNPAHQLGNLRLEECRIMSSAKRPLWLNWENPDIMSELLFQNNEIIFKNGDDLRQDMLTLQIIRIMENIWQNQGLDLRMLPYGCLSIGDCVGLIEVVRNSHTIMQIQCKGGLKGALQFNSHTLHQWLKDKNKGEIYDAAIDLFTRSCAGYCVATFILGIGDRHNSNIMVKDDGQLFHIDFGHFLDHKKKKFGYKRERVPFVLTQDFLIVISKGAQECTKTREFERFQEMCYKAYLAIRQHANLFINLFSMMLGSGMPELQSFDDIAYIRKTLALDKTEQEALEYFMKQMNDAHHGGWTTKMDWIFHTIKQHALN
Sequence of PI3K alpha (P27986 whole entry partner, species assumed): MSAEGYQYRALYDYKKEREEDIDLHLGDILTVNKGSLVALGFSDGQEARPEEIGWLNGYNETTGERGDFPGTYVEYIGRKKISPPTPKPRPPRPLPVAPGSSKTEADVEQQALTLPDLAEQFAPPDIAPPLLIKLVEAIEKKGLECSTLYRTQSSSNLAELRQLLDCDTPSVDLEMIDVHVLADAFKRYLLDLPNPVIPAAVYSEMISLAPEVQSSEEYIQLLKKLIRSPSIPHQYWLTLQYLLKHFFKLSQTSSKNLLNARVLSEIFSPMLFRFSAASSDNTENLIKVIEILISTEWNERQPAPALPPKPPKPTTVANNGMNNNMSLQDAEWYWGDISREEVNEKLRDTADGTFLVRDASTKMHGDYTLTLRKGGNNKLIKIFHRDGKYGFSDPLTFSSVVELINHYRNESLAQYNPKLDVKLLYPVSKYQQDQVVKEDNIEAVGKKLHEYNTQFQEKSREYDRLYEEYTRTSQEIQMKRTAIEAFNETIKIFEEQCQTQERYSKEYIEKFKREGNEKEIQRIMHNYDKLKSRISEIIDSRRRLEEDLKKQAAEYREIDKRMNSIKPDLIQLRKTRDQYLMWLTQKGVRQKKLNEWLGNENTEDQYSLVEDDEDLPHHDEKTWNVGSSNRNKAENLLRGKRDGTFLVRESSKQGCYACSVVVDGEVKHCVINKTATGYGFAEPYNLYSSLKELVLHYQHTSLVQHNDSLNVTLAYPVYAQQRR

inhibition at 0.5 µM [1] [%]	inhibition at 0.5 µM [2] [%]	Structure (SMILES)
> 70	> 70	CN(C(=O)C(F)(F)F)c1nc(N2CCOCC2)nc(N2CCC(Oc3ccc(F)cc3)CC2)n1 [1A15, 2,2,2-trifluoro-N-(4-(4-(4-fluorophenoxy)piperidin-1-yl)-6-morpholino-1,3,5-triazin-2-yl)-N-methylacetamide]
> 70	> 70	Fc1ccccc1OC1CCN(c2nc(N3CCOCC3)nc(-n3cnc4ccccc43)n2)CC1 [1B18, 4-(4-(1H-benzo[d]imidazol-1-yl)-6-(4-(2-fluorophenoxy)piperidin-1-yl)-1,3,5-triazin-2-yl)morpholine]
> 70	> 70	O=C(N(c1ccc(F)cc1)c1nc(N2CCOCC2)nc(N2CCC(Oc3ccc(F)cc3)CC2)n1)C(F)(F)F [1A6, 2,2,2-trifluoro-N-(4-(4-(4-fluorophenoxy)piperidin-1-yl)-6-morpholino-1,3,5-triazin-2-yl)-N-(4-fluorophenyl)acetamide]
50 to 70		CN(C)c1nc(N2CCOCC2)nc(N2CCC(Oc3ccc(F)cc3)CC2)n1 [1A17, 4-(4-(4-fluorophenoxy)piperidin-1-yl)-N,N-dimethyl-6-morpholino-1,3,5-triazin-2-amine]
> 70	> 70	O=C(N(c1ccccc1)c1nc(N2CCOCC2)nc(N2CCC(Oc3ccccc3C(F)(F)F)CC2)n1)C(F)(F)F [1A10, 2,2,2-trifluoro-N-(4-morpholino-6-(4-(2-(trifluoromethyl)phenoxy)piperidin-1-yl)-1,3,5-triazin-2-yl)-N-phenylacetamide]
> 70	> 70	Fc1ccc(NC2CCN(c3nc(N4CCOCC4)nc(-n4cnc5ccccc54)n3)CC2)cc1 [1B37, 1-(4-(1H-benzo[d]imidazol-1-yl)-6-morpholino-1,3,5-triazin-2-yl)-N-(4-fluorophenyl)piperidin-4-amine]
50 to 70		Fc1ccccc1NC1CCN(c2nc(N3CCOCC3)nc(-n3cnc4ccccc43)n2)CC1 [1B38, 1-(4-(1H-benzo[d]imidazol-1-yl)-6-morpholino-1,3,5-triazin-2-yl)-N-(2-fluorophenyl)piperidin-4-amine]
50 to 70		O=C(N(c1ccccc1)c1nc(N2CCOCC2)nc(N2CCC(Oc3ccccc3)CC2)n1)C(F)(F)F [1A4, 2,2,2-trifluoro-N-(4-morpholino-6-(4-phenoxypiperidin-1-yl)-1,3,5-triazin-2-yl)-N-phenylacetamide]
50 to 70		Clc1ccccc1NC1CCN(c2nc(N3CCOCC3)nc(-n3cnc4ccccc43)n2)CC1 [1B39, 1-(4-(1H-benzo[d]imidazol-1-yl)-6-morpholino-1,3,5-triazin-2-yl)-N-(2-chlorophenyl)piperidin-4-amine]
50 to 70		FC(F)c1nc2ccccc2n1-c1nc(N2CCOCC2)nc(N2CCC(Nc3ccccc3C(F)(F)F)CC2)n1 [1B29, 1-(4-(2-(difluoromethyl)-1H-benzo[d]imidazol-1-yl)-6-morpholino-1,3,5-triazin-2-yl)-N-(2-(trifluoromethyl)phenyl)piperidin-4-amine]
> 70	> 70	COc1ccc(NC2CCN(c3nc(N4CCOCC4)nc(-n4c(C(F)F)cc5ccccc54)n3)CC2)cc1 [1B47, 1-(4-(2-(difluoromethyl)-1H-indol-1-yl)-6-morpholino-1,3,5-triazin-2-yl)-N-(4-methoxyphenyl)piperidin-4-amine]
> 70	> 70	COc1cccc(NC2CCN(c3nc(N4CCOCC4)nc(-n4c(C(F)F)nc5ccccc54)n3)CC2)c1 [1B31, 1-(4-(2-(difluoromethyl)-1H-benzo[d]imidazol-1-yl)-6-morpholino-1,3,5-triazin-2-yl)-N-(3-methoxyphenyl)piperidin-4-amine]
50 to 70		Fc1ccc(NC2CCN(c3nc(N4CCOCC4)nc(-n4c(C(F)F)cc5ccccc54)n3)CC2)cc1 [1B46, 1-(4-(2-(difluoromethyl)-1H-indol-1-yl)-6-morpholino-1,3,5-triazin-2-yl)-N-(4-fluorophenyl)piperidin-4-amine]
50 to 70		FC(F)c1nc2ccccc2n1-c1nc(N2CCOCC2)nc(N2CCC(Oc3ccc(OC(F)(F)F)cc3)CC2)n1 [1B3, 4-(4-(2-(difluoromethyl)-1H-benzo[d]imidazol-1-yl)-6-(4-(4-(trifluoromethoxy)phenoxy)piperidin-1-yl)-1,3,5-triazin-2-yl)morpholine]
> 70	> 70	Fc1ccc(N(c2ccc(C(F)(F)F)cc2)C2CCN(c3nc(N4CCOCC4)nc(-n4c(C(F)F)nc5ccccc54)n3)CC2)cc1 [1B43, 1-(4-(2-(difluoromethyl)-1H-benzo[d]imidazol-1-yl)-6-morpholino-1,3,5-triazin-2-yl)-N-(4-fluorophenyl)-N-(4-(trifluoromethyl)phenyl)piperidin-4-amine]
> 70	> 70	FC(F)(F)c1ccccc1OC1CCN(c2nc(N3CCOCC3)nc(N(c3ccccc3)c3ccccc3)n2)CC1 [1A19, 4-morpholino-N,N-diphenyl-6-(4-(2-(trifluoromethyl)phenoxy)piperidin-1-yl)-1,3,5-triazin-2-amine]
50 to 70		Cc1ccc(OC2CCN(c3nc(N(C)C)nc(N4CCOCC4)n3)CC2)cc1 [1A16, N,N-dimethyl-4-morpholino-6-(4-(p-tolyloxy)piperidin-1-yl)-1,3,5-triazin-2-amine]
50 to 70		FC(F)(F)c1ccccc1NC1CCN(c2nc(N3CCOCC3)nc(-n3cnc4ccccc43)n2)CC1 [1B40, 1-(4-(1H-benzo[d]imidazol-1-yl)-6-morpholino-1,3,5-triazin-2-yl)-N-(2-(trifluoromethyl)phenyl)piperidin-4-amine]
50 to 70		FC(F)c1cc2ccccc2n1-c1nc(N2CCOCC2)nc(N2CCC(Nc3ccc(OC(F)(F)F)cc3)CC2)n1 [1B48, 1-(4-(2-(difluoromethyl)-1H-indol-1-yl)-6-morpholino-1,3,5-triazin-2-yl)-N-(4-(trifluoromethoxy)phenyl)piperidin-4-amine]
50 to 70		FC(F)(F)c1ccc(NC2CCN(c3nc(N4CCOCC4)nc(-n4cnc5ccccc54)n3)CC2)cc1 [1B35, 1-(4-(1H-benzo[d]imidazol-1-yl)-6-morpholino-1,3,5-triazin-2-yl)-N-(4-(trifluoromethyl)phenyl)piperidin-4-amine]
> 70	> 70	FC(F)c1cc2ccccc2n1-c1nc(N2CCOCC2)nc(N2CCC(Nc3ccc(C(F)(F)F)cc3)CC2)n1 [1B49, 1-(4-(2-(difluoromethyl)-1H-indol-1-yl)-6-morpholino-1,3,5-triazin-2-yl)-N-(4-(trifluoromethyl)phenyl)piperidin-4-amine]
> 70	> 70	O=C(N(C(=O)C(F)(F)F)c1nc(N2CCOCC2)nc(N2CCC(Oc3ccccc3F)CC2)n1)C(F)(F)F [1A14, 2,2,2-trifluoro-N-(4-(4-(2-fluorophenoxy)piperidin-1-yl)-6-morpholino-1,3,5-triazin-2-yl)-N-(2,2,2-trifluoroacetyl)acetamide]
> 70	> 70	Fc1ccc(N(c2ccc(F)cc2)C2CCN(c3nc(N4CCOCC4)nc(-n4c(C(F)F)nc5ccccc54)n3)CC2)cc1 [1B41, 1-(4-(2-(difluoromethyl)-1H-benzo[d]imidazol-1-yl)-6-morpholino-1,3,5-triazin-2-yl)-N,N-bis(4-fluorophenyl)piperidin-4-amine]
50 to 70		FC(F)(F)Oc1ccc(OC2CCN(c3nc(N4CCOCC4)nc(N(c4ccccc4)c4ccccc4)n3)CC2)cc1 [1A20, 4-morpholino-N,N-diphenyl-6-(4-(4-(trifluoromethoxy)phenoxy)piperidin-1-yl)-1,3,5-triazin-2-amine]
50 to 70		CN(c1ccccc1)c1nc(N2CCOCC2)nc(N2CCC(Oc3ccc(F)cc3)CC2)n1 [1A1, 4-(4-(4-fluorophenoxy)piperidin-1-yl)-N-methyl-6-morpholino-N-phenyl-1,3,5-triazin-2-amine]
50 to 70		FC(F)(F)Oc1ccc(NC2CCN(c3nc(N4CCOCC4)nc(-n4cnc5ccccc54)n3)CC2)cc1 [1B36, 1-(4-(1H-benzo[d]imidazol-1-yl)-6-morpholino-1,3,5-triazin-2-yl)-N-(4-(trifluoromethoxy)phenyl)piperidin-4-amine]
50 to 70		O=C(N(C(=O)C(F)(F)F)c1nc(N2CCOCC2)nc(N2CCC(Oc3ccc(F)cc3)CC2)n1)C(F)(F)F [1A13, 2,2,2-trifluoro-N-(4-(4-(4-fluorophenoxy)piperidin-1-yl)-6-morpholino-1,3,5-triazin-2-yl)-N-(2,2,2-trifluoroacetyl)acetamide]
50 to 70		O=C(N(C(=O)C(F)(F)F)c1nc(N2CCOCC2)nc(N2CCC(Oc3ccccc3)CC2)n1)C(F)(F)F [1A12, 2,2,2-trifluoro-N-(4-morpholino-6-(4-phenoxypiperidin-1-yl)-1,3,5-triazin-2-yl)-N-(2,2,2-trifluoroacetyl)acetamide]
50 to 70		Cc1ccc(OC2CCN(c3nc(N4CCOCC4)nc(-n4c(C(F)F)nc5ccccc54)n3)CC2)cc1 [1B10, 4-(4-(2-(difluoromethyl)-1H-benzo[d]imidazol-1-yl)-6-(4-(p-tolyloxy)piperidin-1-yl)-1,3,5-triazin-2-yl)morpholine]
> 70	> 70	Fc1ccc(N(c2ccc(Br)cc2)C2CCN(c3nc(N4CCOCC4)nc(-n4c(C(F)F)nc5ccccc54)n3)CC2)cc1 [1B42, N-(4-bromophenyl)-1-(4-(2-(difluoromethyl)-1H-benzo[d]imidazol-1-yl)-6-morpholino-1,3,5-triazin-2-yl)-N-(4-fluorophenyl)piperidin-4-amine]
